Data reported in patent US20050032754A1, “5,6-Trans-2-alkylvitamin D derivatives” (Hiroaki TAKAYAMA, priority 2000, published 2005).

What follows are compounds tested against T1, Bovine thymus 1α,25-dihydroxyvitamin D3 receptor (VDR) (Bos taurus, UniProt Q28037). Conditions: relative value, 1α,25-dihydroxyvitamin D3 taken as 100; X=(y/x)×100 from concentrations inhibiting 50% of [3H]-1α,25-dihydroxyvitamin D3 binding (0.1 nM) to VDR.
T1 sequence (Q28037 1-426): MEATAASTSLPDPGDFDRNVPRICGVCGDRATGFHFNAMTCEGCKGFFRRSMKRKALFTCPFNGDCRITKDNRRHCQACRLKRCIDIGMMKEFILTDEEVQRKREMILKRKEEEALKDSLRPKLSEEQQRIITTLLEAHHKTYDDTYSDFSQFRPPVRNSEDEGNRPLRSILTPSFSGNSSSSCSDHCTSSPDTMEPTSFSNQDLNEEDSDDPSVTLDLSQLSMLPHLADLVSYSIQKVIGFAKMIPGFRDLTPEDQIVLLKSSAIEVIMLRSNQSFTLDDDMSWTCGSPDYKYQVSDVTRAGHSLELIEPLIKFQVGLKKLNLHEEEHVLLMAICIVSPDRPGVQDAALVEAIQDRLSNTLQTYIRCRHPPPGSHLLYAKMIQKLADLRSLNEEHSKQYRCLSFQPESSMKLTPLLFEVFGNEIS
Compound `C=C1C(=CC=C2CCCC3(C)C2CCC3C(C)CCCC(C)(C)O)CC(O)C(C)C1O` [Example 4, (5E,7E)-(1R,2S,3R)-2-methyl-9,10-seco-5,7,10(19)-cholestatriene-1,3,25-triol] has a VDR binding property of less than 0.01.
`C=C1/C(=C/C=C2\CCCC3(C)C2CCC3[C@@H](C)CCCC(C)(C)O)C[C@H](O)[C@H](C)[C@H]1O` (stereo partly drawn) [Example 16, (5E,7E)-(1R,2S,3S,20S)-2-methyl-9,10-seco-5,7,10(19)-cholestatriene-1,3,25-triol] showed a VDR binding property of 0.08.
`C=C1/C(=C/C=C2\CCCC3(C)C2CCC3[C@@H](C)CCCC(C)(C)O)C[C@H](O)[C@H](C)[C@@H]1O` (stereo partly drawn) [Example 14, (5E,7E)-(1S,2S,3S,20S)-2-methyl-9,10-seco-5,7,10(19)-cholestatriene-1,3,25-triol] gave a VDR binding property of 0.2.
`C=C1/C(=C/C=C2\CCCC3(C)C2CCC3[C@@H](C)CCCC(C)(C)O)C[C@@H](O)[C@H](C)[C@H]1O` (stereo partly drawn) [Example 12, (5E,7E)-(1R,2S,3R,20S)-2-methyl-9,10-seco-5,7,10(19)-cholestatriene-1,3,25-triol] gave a VDR binding property of 0.03.
For `C=C1/C(=C/C=C2\CCCC3(C)C2CCC3[C@@H](C)CCCC(C)(C)O)C[C@H](O)[C@@H](C)[C@H]1O` (stereo partly drawn) [Example 15, (5E,7E)-(1R,2R,3S,20S)-2-methyl-9,10-seco-5,7,10(19)-cholestatriene-1,3,25-triol], the VDR binding property was 0.2.
With `C=C1/C(=C/C=C2\CCCC3(C)C2CCC3[C@@H](C)CCCC(C)(C)O)C[C@@H](O)[C@H](C)[C@@H]1O` (stereo partly drawn) [Example 10, (5E,7E)-(1S,2S,3R,20S)-2-methyl-9,10-seco-5,7,10(19)-cholestatriene-1,3,25-triol] the VDR binding property was 1.
`C=C1C(=CC=C2CCCC3(C)C2CCC3C(C)CCCC(C)(C)O)CC(O)C(C)C1O` [Example 11, (5E,7E)-(1R,2R,3R,20S)-2-methyl-9,10-seco-5,7,10(19)-cholestatriene-1,3,25-triol] gave a VDR binding property of 0.8.
With `C=C1/C(=C/C=C2\CCCC3(C)C2CCC3[C@H](C)CCCC(C)(C)O)C[C@H](O)[C@@H](C)[C@@H]1O` (stereo partly drawn) [Example 5, (5E,7E)-(1S,2R,3S)-2-methyl-9,10-seco-5,7,10(19)-cholestatriene-1,3,25-triol] the VDR binding property was 0.04.
`C=C1/C(=C/C=C2\CCCC3(C)C2CCC3[C@@H](C)CCCC(C)(C)O)C[C@H](O)[C@@H](C)[C@@H]1O` (stereo partly drawn) [Example 13, (5E,7E)-(1S,2R,3S,20S)-2-methyl-9,10-seco-5,7,10(19)-cholestatriene-1,3,25-triol] showed a VDR binding property of 0.5.
Work on `C=C1/C(=C/C=C2\CCCC3(C)C2CCC3[C@H](C)CCCC(C)(C)O)C[C@H](O)[C@H](C)[C@@H]1O` (stereo partly drawn) [Example 6, (5E,7E)-(1S,2S,3S)-2-methyl-9,10-seco-5,7,10(19)-cholestatriene-1,3,25-triol] yielded a VDR binding property of 0.013.
In the case of `C=C1/C(=C/C=C2\CCC[C@]3(C)[C@@H]([C@H](C)CCCC(C)(C)O)CC[C@@H]23)C[C@@H](O)[C@@H](C)[C@H]1O` [Example 3, (5E,7E)-(1R,2R,3R)-2-methyl-9,10-seco-5,7,10(19)-cholestatriene-1,3,25-triol], the VDR binding property is reported as 0.1.
For `C=C1/C(=C/C=C2\CCCC3(C)C2CCC3[C@@H](C)CCCC(C)(C)O)C[C@@H](O)[C@@H](C)[C@@H]1O` (stereo partly drawn) [Example 9, (5E,7E)-(1S,2R,3R,20S)-2-methyl-9,10-seco-5,7,10(19)-cholestatriene-1,3,25-triol], the VDR binding property was 45.
Work on `C=C1/C(=C/C=C2\CCCC3(C)C2CCC3[C@H](C)CCCC(C)(C)O)C[C@@H](O)[C@H](C)[C@@H]1O` (stereo partly drawn) [Example 2, (5E,7E)-(1S,2S,3R)-2-methyl-9,10-seco-5,7,10(19)-cholestatriene-1,3,25-triol] yielded a VDR binding property of 0.4.
`C=C1/C(=C/C=C2\CCCC3(C)C2CCC3[C@H](C)CCCC(C)(C)O)C[C@H](O)[C@@H](C)[C@H]1O` (stereo partly drawn) [Example 7, (5E,7E)-(1R,2R,3S)-2-methyl-9,10-seco-5,7,10(19)-cholestatriene-1,3,25-triol] was tested, and the VDR binding property was 0.03.
`C=C1/C(=C/C=C2\CCCC3(C)C2CCC3[C@H](C)CCCC(C)(C)O)C[C@@H](O)[C@@H](C)[C@@H]1O` (stereo partly drawn) [Example 1, (5E,7E)-(1S,2R,3R)-2-methyl-9,10-seco-5,7,10(19)-cholestatriene-1,3,25-triol] was tested, and the VDR binding property was 8.6.
In the case of `C=C1/C(=C/C=C2\CCCC3(C)C2CCC3[C@H](C)CCCC(C)(C)O)C[C@H](O)[C@H](C)[C@H]1O` (stereo partly drawn) [Example 8, (5E,7E)-(1R,2S,3S)-2-methyl-9,10-seco-5,7,10(19)-cholestatriene-1,3,25-triol], the VDR binding property is reported as less than 0.01.
